Test results from patent publication US20100104661A1, “DISCONTINUOUS METHODS OF TREATING CANCER” (priority 2006, published 2010).

How the values were obtained:
[1] = system: 22Rv1 prostate tumor xenografts; test: 22Rv1 prostate tumor xenograft, first experiment (lonafarnib 3.5 days on/3.5 days off, docetaxel once weekly); format: in vivo, male athymic nude mice; conditions: single-agent docetaxel 20 mpk i.p. once weekly; after 3 weeks (21 days)
Method: (§1) Intermittent dosing of lonafarnib at 60 mpk BID around the administration of docetaxel was tested in two experiments using the 22Rv1 androgen-independent prostate cancer xenograft model. In both experiments 22Rv1 prostate tumor xenografts were grown in male athymic nude mice. When tumor volumes were approximately 100 mm^3, the animals were randomized (n=10 per treatment group) for grouping. […] In addition, tumor regressions were observed when intermittent lonafarnib was combined with docetaxel.
In the first experiment (see FIG. 1) male mice (n=10 per treatment group) bearing 22Rv1 tumor xenografts were treated with lonafarnib administered at either 30 mpk BID continuously or 60 mpk BID intermittently (3.5 days on/3.5 days off). Docetaxel was administered at 20 mpk once weekly after the fourth dose of lonafarnib. Tumor volumes were measured twice weekly. After 3 weeks (21 days) of treatment, single-agent docetaxel inhibited 22Rv1 tumor growth by 66%. Continuous treatment with single-agent lonafarnib at 30 mpk BID inhibited tumor growth by 85% and intermittent dosing of single-agent lonafarnib at 60 mpk BID inhibited tumor growth by 80%. When combined with weekly administration of docetaxel, continuous treatment with 30 mpk BID lonafarnib caused 22Rv1 tumors to regress by 23%. However, when combined with docetaxel, intermittent lonafarnib (60 mpk BID) caused the tumors to regress by 46%. […]

[2] = system: 22Rv1 prostate tumor xenografts; test: 22Rv1 prostate tumor xenograft, second experiment (lonafarnib 5 days on/5 days off, docetaxel once every 10 days); format: in vivo, male athymic nude mice; conditions: single-agent docetaxel 20 mpk i.p. once every 10 days; after 24 days
Method: as §1
The second experiment (see FIG. 3) was also performed with male mice (n=10 per treatment group) bearing 22Rv1 prostate tumor xenografts that were approximately 100 mm^3 in volume. Lonafarnib was administered at 30 mpk BID continuously or 60 mpk BID intermittently (5 days on/5 days off). Docetaxel was administered at 20 mpk once every 10 days after the second dose of lonafarnib. After 24 days of treatment, single-agent docetaxel inhibited 22Rv1 tumor growth by 78%. Continuous treatment with single-agent lonafarnib at 30 mpk BID inhibited tumor growth by 68% and intermittent dosing of single-agent lonafarnib at 60 mpk BID inhibited tumor growth by 78%. When combined with docetaxel, continuous treatment with 30 mpk BID lonafarnib caused 22Rv1 tumors to regress by 10%. However, when combined with docetaxel, intermittent lonafarnib (60 mpk BID) caused the tumors to regress by 37%. […]

NSCLC = conditions: 100 mg/m^2 in patients previously treated with chemotherapy; cited from earlier work
[3] = system: node-positive breast cancer; conditions: adjuvant, sequentially to doxorubicin-containing chemotherapy; total population of patients with receptor-positive and receptor-negative tumors; cited from earlier work
[4] = system: AIDS-related Kaposi's sarcoma; conditions: 135 mg/m^2 every 3 weeks versus 100 mg/m^2 every 2 weeks; cited from earlier work

Structure (SMILES) | inhibition of 22Rv1 tumor growth [1] [%] | inhibition of 22Rv1 tumor growth [2] [%] | toxicity at higher dose (NSCLC) | effect on disease-free and overall survival [3] | toxicity of dosing schedules [4]
CC(=O)O[C@@]12CO[C@@H]1C[C@H](O)[C@@]1(C)C(=O)[C@H](O)C3=C(C)[C@@H](OC(=O)[C@H](O)[C@@H](NC(=O)OC(C)(C)C)c4ccccc4)C[C@@](O)([C@@H](OC(=O)c4ccccc4)[C@H]21)C3(C)C [docetaxel] | 66 | 78 | associated with increased hematologic toxicity, infection, and treatment related mortality | – | –
CC(=O)O[C@H]1C(=O)[C@@]2(C)[C@H]([C@H](OC(=O)c3ccccc3)[C@]3(O)C[C@H](OC(=O)[C@H](O)[C@@H](NC(=O)c4ccccc4)c4ccccc4)C(C)=C1C3(C)C)[C@]1(OC(C)=O)CO[C@@H]1C[C@@H]2O [Taxol, paclitaxel] | – | – | – | overall favorable effect on disease-free and overall survival | more toxic than the latter
